From US9957246B2, “Prodrugs of tetrahydrocannabinol, compositions comprising prodrugs of tetrahydrocannabinol and methods of using the same” (Zynerba Pharmaceuticals, Inc., priority 2007, dated 2018) come the findings set out here.

The nature of data set [1]: In vitro human skin permeation, flow-through diffusion cells.
Data set [2] can be described thus: Plasma stability of prodrugs (bioconversion to parent drug). Type of data set: in vitro ADME. As to the method: Approximately 1 mg/mL of stock solution of each prodrug was prepared in 100 μL of ethanol and 900 μL of acetonitrile. Next, 10 μL of stock was spiked into 1 mL of plasma and vortexed. The samples were kept sealed in an amber vial and samples were obtained to analyze for bioconversion to parent drug.
An approximated 1 mg/mL stock solution of each prodrug was prepared in 100 μL of ethanol and 900 μL of acetonitrile. Next, 10 μL of stock was spiked into 1 mL of plasma and vortexed. The samples were kept sealed in an amber vial and samples were obtained to analyze for bioconversion to parent drug.
Approximately 1 mg/mL of stock solution of each prodrug was prepared in 100 μL of ethanol and 900 μL of acetonitrile. Ten μL of stock was spiked into 1 mL of plasma and vortexed. The samples were kept sealed in an amber vial and samples were obtained to analyze for bioconversion to parent drug.

Setting [3] is: Table 7, 2.36:1.18:1 PG:ethanol:H2O donor solution, analyte: THC from prodrug.
Setting [4] is: Table 7, 2.36:1.18:1 PG:ethanol:H2O donor solution, analyte: THC or intact prodrug as applied.
[5] abbreviates: Table 7, 2.36:1.18:1 PG:ethanol:H2O donor solution, total THC equivalents (THC and/or prodrug).
Setting [6] is: Table 8, gel formulation, analyte: THC or intact prodrug as applied.
Setting [7] is: Table 9, 2.36:1.18:1 pH = 5.5 PG:ethanol:H2O donor solution, analyte: THC or intact prodrug as applied.
[8] abbreviates: Table 10, 2.36:1.18:1 pH = 5.5 PG:ethanol:H2O donor solution, analyte: THC or intact prodrug as applied.
[9] abbreviates: Table 17, 90:8:2 PG:H2O:IPM donor solution, analyte: THC or intact prodrug as applied.
Setting [10] is: Table 18, 90:8:2 PG:H2O:IPM donor solution, analyte: THC or intact prodrug as applied.
Setting [11] is: Table 19, 90:8:2 PG:H2O:IPM donor solution, analyte: THC or intact prodrug as applied.
The mark [12] stands for this setting: Table 13, gel formulation with 40% aqueous PEG 400 receiver fluid, analyte: THC or intact prodrug as applied.

Structures can show the parent of a compound that is named as a salt.

Turning to `CCCCCc1cc(OC(=O)CNC=O)c2c(c1)OC(C)(C)[C@@H]1CCC(C)=C[C@@H]21` [ALL00120, Δ^9-Tetrahydrocannabinol N-formylglycyl ester], the “24 h cumulative amt” value in data set [1] (setting [3]) amounted to 8.8 ± 1.2 nmol; in data set [1] (setting [4]) it was 30.5 ± 7.0 nmol; in data set [1] (setting [5]) it was 39.3 ± 6.6 nmol. Besides, the “24 h skin conc” value in data set [1] (setting [3]) was found to be 3.1 ± 1.1 µmol/g; in data set [1] (setting [4]), 47.1 ± 6.3 µmol/g; in data set [1] (setting [5]), 50.2 ± 7.1 µmol/g; in data set [1] (Table 8, gel formulation, analyte: THC from prodrug) it was 3.1 ± 2.1 µmol/g; in data set [1] (setting [6]) it was 44.8 ± 1.6 µmol/g; in data set [1] (Table 8, gel formulation, total THC equivalents (THC and/or prodrug)), 47.9 ± 2.8 µmol/g. In addition, the values for the Flux in data set [1] (setting [3]), in data set [1] (setting [4]) and in data set [1] (setting [5]) were 0.6 ± 0.1 nmol/cm^2/h, 2.0 ± 0.5 nmol/cm^2/h and 2.7 ± 0.5 nmol/cm^2/h, respectively. Further, the figures for the Lag time in data set [1] (setting [3]), in data set [1] (setting [4]) and in data set [1] (setting [5]) were 9.2 ± 0.8 h, 8.1 ± 1.6 h and 8.4 ± 1.3 h, respectively. Also, in data set [1] (Table 7, 2.36:1.18:1 PG:ethanol:H2O donor solution, total THC equivalents), the Flux enhancement stood at 0.87. The “% Prodrug at time (h)” value in data set [2] (Table 11, 0.1 h) is 70%; in data set [2] (Table 11, 1 h), 8%; in data set [2] (Table 11, 22 h) it was 0%; in data set [2] (Table 11, 24 h), 0%; in data set [2] (Table 11, 42 h) it was 0%.

With `CCCCCc1cc(OC(=O)CN(C)C=O)c2c(c1)OC(C)(C)[C@@H]1CCC(C)=C[C@@H]21` [ALL00121, Δ^9-Tetrahydrocannabinol N-formylsarcosyl ester], the figures for the “24 h cumulative amt” value in data set [1] (setting [4]) and in data set [1] (setting [6]) were 18.5 ± 5.6 nmol and 8.8 ± 0.1 nmol, respectively. Moreover, the “24 h skin conc” value worked out at 72.3 ± 54.0 µmol/g in data set [1] (setting [4]) and 33.2 ± 7.2 µmol/g in data set [1] (setting [6]). For the same molecule, the Flux in data set [1] (setting [4]) came out at 1.2 ± 0.3 nmol/cm^2/h; in data set [1] (setting [6]) it was 0.38 ± 0.03 nmol/cm^2/h. Further, the Lag time in data set [1] (setting [4]) worked out at 8.3 ± 0.5 h; in data set [1] (setting [6]) it was 1.4 ± 0.0 h. In addition, the “% Prodrug at time (h)” value in data set [2] (Table 11, 0.1 h) came to 100%; in data set [2] (Table 11, 1 h) it was 50%; in data set [2] (Table 11, 22 h) it was 10%; in data set [2] (Table 11, 24 h), 14%; in data set [2] (Table 11, 42 h), 0%.

As for `CCCCCc1cc(OC(=O)C(=O)OCCOCCOCCOCCOC)c2c(c1)OC(C)(C)[C@@H]1CCC(C)=C[C@@H]21` [ALL00122, Δ^9-Tetrahydrocannabinol 3,6,9,12-tetraoxatridecyl oxalate], the “24 h skin conc” value in data set [1] (setting [7]) stood at 52.7 ± 3.2 µmol/g. The “% Prodrug at time (h)” value in data set [2] (Table 11, 0.1 h) is reported as 0%; in data set [2] (Table 11, 1 h), 0%; in data set [2] (Table 11, 22 h), 0%; in data set [2] (Table 11, 24 h) it was 0%; in data set [2] (Table 11, 42 h), 0%.

`CCCCCc1cc(OC(=O)CCC(=O)O)c2c(c1)OC(C)(C)[C@@H]1CCC(C)=C[C@@H]21` [ALL00123, Δ^9-Tetrahydrocannabinol hemisuccinate]: in data set [1] (setting [6]), the “24 h cumulative amt” value is on record as 2.3 ± 1.5 nmol. In addition, the “24 h skin conc” value in data set [1] (setting [6]) was determined as 110.4 ± 22.2 µmol/g. For the same molecule, the Flux in data set [1] (setting [6]) was 0.15 ± 0.07 nmol/cm^2/h. For the same molecule, the “% Prodrug at time (h)” value came out at 0% in data set [2] (Table 11, 0.1 h); 0% in data set [2] (Table 11, 1 h); 0% in data set [2] (Table 11, 22 h); 0% in data set [2] (Table 11, 24 h); 0% in data set [2] (Table 11, 42 h).

Regarding `CCCCCc1cc(OC(=O)NCCCCN)c2c(c1)OC(C)(C)[C@@H]1CCC(C)=C[C@@H]21` [ALL00124, Δ^9-Tetrahydrocannabinol 4-aminobutyl carbamate], the “24 h cumulative amt” value in data set [1] (setting [7]) is on record as 138.7 ± 101.2 nmol; in data set [1] (setting [8]), 245.2 ± 54.1 nmol. In addition, the figures for the “24 h skin conc” value in data set [1] (setting [7]) and in data set [1] (setting [8]) were 17.3 ± 0.4 µmol/g and 4.3 ± 0.3 µmol/g, respectively. The Flux in data set [1] (setting [7]) is reported as 9.4 ± 5.9 nmol/cm^2/h; in data set [1] (setting [8]), 16.1 ± 0.1 nmol/cm^2/h. Further, the Lag time is reported as 9.1 ± 2.0 h in data set [1] (setting [7]) and 1.4 ± 0.0 h in data set [1] (setting [8]). The “% Prodrug at time (h)” value in data set [2] (Table 11, 0.1 h) came to 97%; in data set [2] (Table 11, 1 h) it was 97%; in data set [2] (Table 11, 2 h), 97%; in data set [2] (Table 11, 3 h), 96%; in data set [2] (Table 11, 5 h) it was 94%; in data set [2] (Table 11, 24 h), 71%.

As for `CCCCCc1cc(OC(=O)OC[C@H](O)CO)c2c(c1)OC(C)(C)[C@@H]1CCC(C)=C[C@@H]21` [ALL00126, Δ^9-Tetrahydrocannabinol (R)-2,3-dihydroxypropyl carbonate], in data set [1] (setting [9]), the “24 h cumulative amt” value was 69.7 ± 10.7 nmol, the “24 h skin conc” value turned out to be 17.8 ± 4.8 µmol/g, the Flux stood at 5.7 ± 0.0 nmol/cm^2/h and the Lag time was determined as 10.8 ± 2.1 h. In addition, the “% Prodrug at time (h)” value in data set [2] (Table 15, 0.1 h) amounted to 100%. For the same molecule, the “% Prodrug at time (h)” value in data set [2] (Table 15, 1 h) was 3%. For the same molecule, the “% Prodrug at time (h)” value in data set [2] (Table 15, 2.5 h) worked out at 1%. Moreover, the “% Prodrug at time (h)” value in data set [2] (Table 15, 3.5 h) was determined as 1%.

Regarding `CCCCCc1cc(OC(=O)C(C)(CO)CO)c2c(c1)OC(C)(C)[C@@H]1CCC(C)=C[C@@H]21` [ALL00129, Δ^9-Tetrahydrocannabinol 3-hydroxy-2-(hydroxymethyl)-2-methylpropanoate], in data set [1] (setting [10]), the “24 h cumulative amt” value is 74.2 ± 8.1 nmol, the “24 h skin conc” value was found to be 19.6 ± 12.6 µmol/g, the Flux is given as 4.8 ± 0.7 nmol/cm^2/h and the Lag time is recorded as 7.8 ± 1.3 h. Further, the “% Prodrug at time (h)” value in data set [2] (Table 15, 0.1 h) turned out to be 100%. Moreover, the “% Prodrug at time (h)” value in data set [2] (Table 15, 1 h) is reported as 100%. Moreover, in data set [2] (Table 15, 3 h), the “% Prodrug at time (h)” value was found to be 98%. Besides, in data set [2] (Table 15, 24 h), the “% Prodrug at time (h)” value is 83%.

In the case of `CCCCCc1cc(OC(=O)[C@@H](O)CO)c2c(c1)OC(C)(C)[C@@H]1CCC(C)=C[C@@H]21` [ALL00134, A9-Tetrahydrocannabinol (S)-2,3-dihydroxypropanoate], the “24 h cumulative amt” value in data set [1] (setting [11]) amounted to 128.6 ± 5.1 nmol. The “24 h skin conc” value in data set [1] (setting [11]) was 24.5 ± 12.3 µmol/g. The Flux in data set [1] (setting [11]) was determined as 8.0 ± 0.3 nmol/cm^2/h. Moreover, the Lag time in data set [1] (setting [11]) is recorded as 7.0 ± 0.1 h. For the same molecule, the “% Prodrug at time (h)” value in data set [2] (Table 15, 0.1 h) is recorded as 96%; in data set [2] (Table 15, 0.5 h), 61%; in data set [2] (Table 15, 2 h), 15%; in data set [2] (Table 15, 5 h), 0.8%; in data set [2] (Table 15, 24 h), 0%.

Consider `CCCCCc1cc(OC(=O)OC[C@@H](O)CO)c2c(c1)OC(C)(C)[C@@H]1CCC(C)=C[C@@H]21` [ALL00138, Δ^9-Tetrahydrocannabinol (S)-2,3-dihydroxypropyl carbonate], for which, in data set [1] (setting [10]), the “24 h cumulative amt” value is 18.2 ± 1.4 nmol, the “24 h skin conc” value stood at 7.2 ± 4.8 µmol/g, the Flux stood at 1.0 ± 0.0 nmol/cm^2/h and the Lag time worked out at 5.9 ± 1.4 h. In addition, the “% Prodrug at time (h)” value in data set [2] (Table 15, 0.1 h) is on record as 30%. Also, the “% Prodrug at time (h)” value in data set [2] (Table 15, 0.5 h) came to 0%.

`CCCCCc1cc(OC(=O)CCN(C)C)c2c(c1)OC(C)(C)[C@@H]1CCC(C)=C[C@@H]21` [ALL00153, Δ^9-Tetrahydrocannabinol 3-(dimethylamino)propionate]: the “24 h skin conc” value was 1.6 ± 0.03 µmol/g in data set [1] (setting [12]) and 0.6 ± 0.1 µmol/g in data set [1] (Table 20, 90:8:2 PG:H2O:IPM donor solution (saturated), analyte: THC or intact prodrug as applied). The “% Prodrug at time (h)” value amounted to 98% in data set [2] (Table 14, 0 h); 72% in data set [2] (Table 14, 1 h); 48% in data set [2] (Table 14, 21 h); 41% in data set [2] (Table 14, 24 h).

Consider `CCCCCc1cc(OC(=O)CO)c2c(c1)OC(C)(C)[C@@H]1CCC(C)=C[C@@H]21` [ALL00154, Δ^9-Tetrahydrocannabinol glycolate], for which, in data set [1] (setting [12]), the “24 h cumulative amt” value came out at 39.2 nmol. For the same molecule, in data set [1] (setting [12]), the “24 h skin conc” value was determined as 2.6 ± 1.5 µmol/g. In data set [1] (setting [12]), the Flux is 3.23 nmol/cm^2/h. In addition, the Lag time in data set [1] (setting [12]) is 12.2 h. Moreover, the “% Prodrug at time (h)” value in data set [2] (Table 14, 0 h) came to 95%; in data set [2] (Table 14, 1 h), 0%; in data set [2] (Table 14, 21 h), 0%; in data set [2] (Table 14, 24 h), 0%.
